Laboratory results taken from publication PMC5441849, “Carvacrol derivatives as mushroom tyrosinase inhibitors; synthesis, kinetics mechanism and molecular docking studies” (PLoS ONE, 2017).
“Also recorded” adds a separate entry of the source. Like-named read-outs stand apart in the source and are kept apart here.

Legend:
mushroom tyrosinase [1] = molecular target: T1, mushroom tyrosinase (Agaricus bisporus, UniProt C7FF04); assay: Kinetic analysis of tyrosinase inhibition (Lineweaver-Burk and Dixon plots, diphenolase activity); format: biochemical, Agaricusbisporus; conditions: for Type of inhibition: Lineweaver-Burk plots, oxidation of L-DOPA
T1 construct: purchased Sigma
Experimental: Pre-incubation and measurement time was the same as discussed in mushroom tyrosinase inhibition assay protocol. Formation of DOPAchrome was continuously monitored at 475nm for 5min at a 30s interval in the microplate reader after addition of enzyme.

mushroom tyrosinase [2] = molecular target: T1, mushroom tyrosinase; assay: Reversibility of inhibition (remaining enzyme activity versus enzyme concentration); format: biochemical, Agaricusbisporus; conditions: enzyme 2 to 10 μg/mL, L-DOPA, 37°C
Experimental: Assay conditions were same as described in assay protocolexceptthat the final concentration of enzyme was varied (2 to 10 μg/mL).

[3] = Dixon plot, L-DOPA substrate, read-out: Inhibition constant Ki

T1 sequence (C7FF04 2-392): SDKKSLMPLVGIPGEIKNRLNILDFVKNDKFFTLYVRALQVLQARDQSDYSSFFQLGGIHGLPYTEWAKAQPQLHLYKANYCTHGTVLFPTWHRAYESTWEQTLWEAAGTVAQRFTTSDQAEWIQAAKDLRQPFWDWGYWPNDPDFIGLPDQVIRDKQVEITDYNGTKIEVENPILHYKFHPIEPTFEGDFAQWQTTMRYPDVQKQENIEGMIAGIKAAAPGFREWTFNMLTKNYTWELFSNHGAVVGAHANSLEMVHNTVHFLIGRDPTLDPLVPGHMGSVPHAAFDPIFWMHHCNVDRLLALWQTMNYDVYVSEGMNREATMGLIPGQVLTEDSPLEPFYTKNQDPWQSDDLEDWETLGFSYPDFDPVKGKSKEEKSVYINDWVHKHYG

How did the Ki (mushroom tyrosinase [1]) turn out when `Cc1ccc(C(C)C)cc1OC(=O)COC(=O)/C=C/c1ccc(O)cc1O` [6c, 2-[2-methyl-5-(propan-2-yl)phenoxy]-2-oxoethyl (2E)-3-(2,4-dihydroxyphenyl)prop-2-enoate] was run?
Its Ki is 0.05 µM.

What about the Type of inhibition (mushroom tyrosinase [1]) of the same molecule?
The Type of inhibition was “non-competitive inhibitor”.

What about the “Reversibility of enzyme inhibition” value (mushroom tyrosinase [2]) of the same molecule?
The value was “irreversible; also recorded: irreversibly”.

Which results are given for `Cc1ccc(C(C)C)cc1OC(=O)COC(=O)c1ccc(O)cc1O` [4c, 2-[2-methyl-5-(propan-2-yl)phenoxy]-2-oxoethyl 2,4-dihydroxybenzoate]?
Ki (mushroom tyrosinase [1]; [3]): 19 µM; Type of inhibition (mushroom tyrosinase [1]): mixed-type inhibition; Reversibility of enzyme inhibition (mushroom tyrosinase [2]): reversible inhibitor; also recorded: reversibly

`Cc1ccc(C(C)C)cc1OC(=O)COC(=O)/C=C/c1ccc(O)cc1` [6b, 2-[2-methyl-5-(propan-2-yl)phenoxy]-2-oxoethyl (2E)-3-(4-hydroxyphenyl)prop-2-enoate] was tested. Which Ki (mushroom tyrosinase [1]; [3]) did it give?
The Ki was 10 µM.

And the Type of inhibition (mushroom tyrosinase [1])?
Its Type of inhibition is “mixed-type inhibition”.

And the “Reversibility of enzyme inhibition” value (mushroom tyrosinase [2])?
Its value is “irreversible”.
